The text below walks through data of US11590116B2 (THERAVANCE BIOPHARMA R&D IP, LLC, priority 2019, dated 2023).

Each structure is given as a SMILES string.

Assay [1] concerns TGF-β-stimulated SMAD3 phosphorylation in BEAS-2B cells. As to the kind of experiment: Cellular ALK5 potency assay, inhibition of TGF-β stimulated pSMAD3 formation in BEAS-2B cells. Particulars: Homo sapiens; inhibition of TGF-β stimulated pSMAD3 formation, BEAS-2B cells; read-out: BEAS2B pIC50 (converted). The class given is cell-based. In short, it runs like this:
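pSMAD3 was quantified by AlphaLISA in BEAS-2B lysates after 10 ng/mL TGF-β (final) for 30 min. Before stimulation, cells received compound for 1 h at 37° C in supplemented HBSS. Values are pIC50, relative to TGF-β-stimulated cells without compound.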

Assay [2] addresses T1, recombinant human ALK5 (TGF-βR1) protein (Homo sapiens, UniProt P36897).
T1 construct: purchased Life Technologies PR9075A
T1 sequence (P36897 34-503): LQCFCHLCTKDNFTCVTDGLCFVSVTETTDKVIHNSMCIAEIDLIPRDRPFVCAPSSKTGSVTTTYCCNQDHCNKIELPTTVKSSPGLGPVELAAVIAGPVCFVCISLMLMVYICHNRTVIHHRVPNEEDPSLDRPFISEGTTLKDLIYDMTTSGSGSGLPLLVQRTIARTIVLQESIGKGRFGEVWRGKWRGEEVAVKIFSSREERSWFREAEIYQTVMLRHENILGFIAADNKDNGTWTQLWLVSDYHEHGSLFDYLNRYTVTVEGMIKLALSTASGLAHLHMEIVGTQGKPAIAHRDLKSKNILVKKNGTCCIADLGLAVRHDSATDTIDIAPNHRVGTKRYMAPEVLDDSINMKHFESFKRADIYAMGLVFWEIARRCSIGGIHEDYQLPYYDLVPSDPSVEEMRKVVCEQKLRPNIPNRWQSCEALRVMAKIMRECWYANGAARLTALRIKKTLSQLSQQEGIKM
The experiment in a line: Biochemical ALK5 (TGF-βR1) assay to measure pKi (LANCE Ultra ULight kinase assay). Particulars: apparent pKi from pIC50 by Cheng-Prusoff, read-out: ALK5 pKi (converted). In short, it runs like this: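 Compounds (10 μM to 25 pM) preincubated 60 minutes at room temperature with enzyme, then reaction run 60 minutes at 37° C with ATP added as 125 μM (5× final). Stopped with EDTA plus Eu-anti-phospho-Topoisomerase 2-alpha (Thr1342) antibody, TR-FRET read at 665 nm; pIC50 converted to pKi via Cheng-Prusoff.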

`Cc1cccc(-c2[nH]cnc2-c2ccc3ncc(-c4csc(C(=O)O[C@@H]5CCNC5)c4)cc3c2)n1` [Compound 749, [(3R)-pyrrolidin-3-yl] 4-[6-[5-(6-methyl-2-pyridyl)-1H-imidazol-4-yl]-3-quinolyl]thiophene-2-carboxylate]: the IC50 in assay [1] was 25.1 to 158 nM. The Ki in assay [2] was below 0.0316 nM.
For `Cc1cccc(-c2[nH]ncc2-c2ccc3ncc(C(=O)OC4CCC(N)CC4)cc3c2)n1` (stereo not shown) [Compound 1216, (4-aminocyclohexyl) 6-[5-(6-methyl-2-pyridyl)-1H-pyrazol-4-yl]quinoline-3-carboxylate], in assay [1], the IC50 is below 20 nM. In assay [2], the Ki is 0.0398 to 0.316 nM.
With `Cc1cccc(-c2[nH]cnc2-c2ccc3ncc(NC[C@@H]4CCCN4)cc3c2)n1` [Compound 679, 6-[5-(6-methyl-2-pyridyl)-1H-imidazol-4-yl]-N-[[(2S)-pyrrolidin-2-yl]methyl]quinolin-3-amine], the IC50 in assay [1] was 200 to 1260 nM. Moreover, the Ki in assay [2] was 0.0398 to 0.316 nM.
Take `Cc1cccc(-c2n[nH]cc2-c2ccc3ncc(-c4nc(CCN)c(C)[nH]4)cc3n2)n1` [Compound 671, 2-[5-methyl-2-[6-[3-(6-methyl-2-pyridyl)-1H-pyrazol-4-yl]-1,5-naphthyridin-3-yl]-1H-imidazol-4-yl]ethanamine]: the IC50 in assay [1] was 200 to 1260 nM. Moreover, the Ki in assay [2] was 0.0398 to 0.316 nM.
The corresponding values for `Cc1cccc(-c2n[nH]cc2-c2ccc3ncc(-c4ccnnc4)cc3n2)n1` [Compound 215, 2-[3-(6-methyl-2-pyridyl)-1H-pyrazol-4-yl]-7-pyridazin-4-yl-1,5-naphthyridine] are below 20 nM and below 0.0316 nM.
Turning to `Cc1cccc(-c2n[nH]cc2-c2ccc3ncc(-c4cncs4)cc3n2)n1` [Compound 190, 5-[6-[3-(6-methyl-2-pyridyl)-1H-pyrazol-4-yl]-1,5-naphthyridin-3-yl]thiazole], the IC50 in assay [1] is below 20 nM. Further, the Ki in assay [2] is below 0.0316 nM.
The corresponding values for `CNCCn1cc(-c2cnc3ccc(-c4c(-c5cccc(C)n5)nnn4Cc4ccccc4)nc3c2)cn1` [Compound 439, 2-[4-[6-[3-benzyl-5-(6-methyl-2-pyridyl)triazol-4-yl]-1,5-naphthyridin-3-yl]pyrazol-1-yl]-N-methyl-ethanamine] are 25.1 to 158 nM and 0.0398 to 0.316 nM.
The corresponding values for `Cc1cccc(-c2n[nH]cc2-c2ccc3ncc(-c4cnn(CC(=O)N5CCNCC5)c4)cc3n2)n1` [Compound 295, 2-[4-[6-[3-(6-methyl-2-pyridyl)-1H-pyrazol-4-yl]-1,5-naphthyridin-3-yl]pyrazol-1-yl]-1-piperazin-1-yl-ethanone] are 200 to 1260 nM and 0.0398 to 0.316 nM.
Regarding `Cc1cccc(-c2[nH]cnc2-c2ccc3ncc(-c4cc(C(=O)O[C@@H]5CCNC5)cs4)cc3c2)n1` [Compound 1105, [(3R)-pyrrolidin-3-yl] 5-[6-[5-(6-methyl-2-pyridyl)-1H-imidazol-4-yl]-3-quinolyl]thiophene-3-carboxylate], in assay [1], the IC50 is 25.1 to 158 nM. Also, the Ki in assay [2] was below 0.0316 nM.
The matching figures for `Cc1cccc(-c2nc3ccccn3c2-c2ccc3ncc(-c4cnn5c4CNCC5)cc3n2)n1` [Compound 587, 2-(2-(6-methylpyridin-2-yl)imidazo[1,2-a]pyridin-3-yl)-7-(4,5,6,7-tetrahydropyrazolo[1,5-a]pyrazin-3-yl)-1,5-naphthyridine]: 25.1 to 158 nM and 0.0398 to 0.316 nM.
With `Cc1cccc(-c2n[nH]cc2-c2ccc3ncc(-c4cncc(N)n4)cc3n2)n1` [Compound 235, 6-[6-[3-(6-methyl-2-pyridyl)-1H-pyrazol-4-yl]-1,5-naphthyridin-3-yl]pyrazin-2-amine], the IC50 in assay [1] is 25.1 to 158 nM. Further, in assay [2], the Ki is 0.0398 to 0.316 nM.
Turning to `Cc1cccc(-c2n[nH]cc2-c2ccc3ncc(N4CC(N5CCOCC5)C4)cc3n2)n1` [Compound 156, 4-[1-[6-[3-(6-methyl-2-pyridyl)-1H-pyrazol-4-yl]-1,5-naphthyridin-3-yl]azetidin-3-yl]morpholine], the IC50 in assay [1] was below 20 nM. Moreover, in assay [2], the Ki was below 0.0316 nM.
With `Cc1cccc(-c2n[nH]cc2-c2ccc3nccc(C(=O)NCCCCCCNC(=O)[C@@H]4CCCN4C(=O)CN4CCOCC4)c3n2)n1` (racemic) [Compound 809, 6-[3-(6-methyl-2-pyridyl)-1H-pyrazol-4-yl]-N-[6-[[rac-(2S)-1-(2-morpholinoacetyl)pyrrolidine-2-carbonyl]amino]hexyl]-1,5-naphthyridine-4-carboxamide], in assay [1], the IC50 is 200 to 1260 nM. The Ki in assay [2] was 0.398 to 3.16 nM.
The corresponding values for `Cc1cccc(-c2n[nH]cc2-c2ccc3ncc(N4CCN(CCO)CC4)cc3n2)n1` [Compound 639, 2-[4-[6-[3-(6-methyl-2-pyridyl)-1H-pyrazol-4-yl]-1,5-naphthyridin-3-yl]piperazin-1-yl]ethanol] are 25.1 to 158 nM and below 0.0316 nM.
Take `Cc1nc(-c2n[nH]cc2-c2ccc3ncc(N4CC[C@H](N(C)C)C4)cc3n2)ccc1F` [Compound 135, (3S)-1-[6-[3-(5-fluoro-6-methyl-2-pyridyl)-1H-pyrazol-4-yl]-1,5-naphthyridin-3-yl]-N,N-dimethyl-pyrrolidin-3-amine]: in assay [1], the IC50 is 25.1 to 158 nM. Further, the Ki in assay [2] is below 0.0316 nM.
Consider `Cc1cccc(-c2[nH]cnc2-c2ccc3ncc(NCCN4CCCC4)cc3n2)n1` [Compound 573, 6-[5-(6-methyl-2-pyridyl)-1H-imidazol-4-yl]-N-(2-pyrrolidin-1-ylethyl)-1,5-naphthyridin-3-amine], for which the IC50 in assay [1] was 25.1 to 158 nM. In assay [2], the Ki was 0.0398 to 0.316 nM.
The corresponding values for `Cc1nc(-c2n[nH]cc2-c2ccc3ncc(-c4cnn(C(=O)OC(C)C)c4)cc3n2)ccc1F` [Compound 599, isopropyl 4-[6-[3-(5-fluoro-6-methyl-2-pyridyl)-1H-pyrazol-4-yl]-1,5-naphthyridin-3-yl]pyrazole-1-carboxylate] are below 20 nM and below 0.0316 nM.
The corresponding values for `Cc1cccc(-c2nn3cc(Cl)ccc3c2-c2ccc3ncc(-c4cn[nH]c4)cc3n2)n1` [Compound 330, 2-[6-chloro-2-(6-methyl-2-pyridyl)pyrazolo[1,5-a]pyridin-3-yl]-7-(1H-pyrazol-4-yl)-1,5-naphthyridine] are 25.1 to 158 nM and 0.0398 to 0.316 nM.
With `CNCc1cncc(-c2cnc3ccc(-c4c[nH]nc4-c4cccc(C)n4)nc3c2)c1` [Compound 214, N-methyl-1-[5-[6-[3-(6-methyl-2-pyridyl)-1H-pyrazol-4-yl]-1,5-naphthyridin-3-yl]-3-pyridyl]methanamine], the IC50 in assay [1] is 25.1 to 158 nM. Besides, the Ki in assay [2] was 0.0398 to 0.316 nM.
The matching figures for `Cc1cccc(-c2n[nH]cc2-c2ccc3ncc(NC4CCCNC4)cc3n2)n1` (stereo not shown) [Compound 543, 6-[3-(6-methyl-2-pyridyl)-1H-pyrazol-4-yl]-N-(3-piperidyl)-1,5-naphthyridin-3-amine]: 25.1 to 158 nM and 0.0398 to 0.316 nM.
Regarding `Cc1cccc(-c2n[nH]cc2-c2ccc3ncc(N4CCN(C)CC4)cc3n2)n1` [Compound 654, 7-(4-methylpiperazin-1-yl)-2-[3-(6-methyl-2-pyridyl)-1H-pyrazol-4-yl]-1,5-naphthyridine], the IC50 in assay [1] is 25.1 to 158 nM. Also, in assay [2], the Ki is 0.0398 to 0.316 nM.
Take `CCOC(=O)CCN(C)c1cnc2ccc(-c3c[nH]nc3-c3cccc(C)n3)nc2c1` [Compound 601, ethyl 3-[methyl-[6-[3-(6-methyl-2-pyridyl)-1H-pyrazol-4-yl]-1,5-naphthyridin-3-yl]amino]propanoate]: the IC50 in assay [1] is 200 to 1260 nM. Besides, the Ki in assay [2] was 3.98 to 31.6 nM.
The corresponding values for `Cc1nc(-c2[nH]cnc2-c2ccc3ncc(-c4cn[nH]c4)cc3n2)ccc1F` [Compound 536, 2-[5-(5-fluoro-6-methyl-2-pyridyl)-1H-imidazol-4-yl]-7-(1H-pyrazol-4-yl)-1,5-naphthyridine] are below 20 nM and below 0.0316 nM.
The corresponding values for `Cc1cccc(-c2[nH]cnc2-c2ccc3ncc(-c4cnc(C(=O)OCCN5CCNCC5)nc4)cc3c2)n1` [Compound 1138, 2-piperazin-1-ylethyl 5-[6-[5-(6-methyl-2-pyridyl)-1H-imidazol-4-yl]-3-quinolyl]pyrimidine-2-carboxylate] are 200 to 1260 nM and 0.398 to 3.16 nM.
The corresponding values for `Cc1cccc(-c2n[nH]cc2-c2ccc3nccc(C(=O)NCCN4CCOCC4)c3n2)n1` [Compound 802, 6-[3-(6-methyl-2-pyridyl)-1H-pyrazol-4-yl]-N-(2-morpholinoethyl)-1,5-naphthyridine-4-carboxamide] are 200 to 1260 nM and 0.0398 to 0.316 nM.
Regarding `Cc1cccc(-c2nc3ccccn3c2-c2ccc3ncc(N4CCCNCC4)cc3c2)n1` [Compound 363, 3-(1,4-diazepan-1-yl)-6-[2-(6-methyl-2-pyridyl)imidazo[1,2-a]pyridin-3-yl]quinoline], the IC50 in assay [1] was 25.1 to 158 nM. The Ki in assay [2] was 0.0398 to 0.316 nM.
